Test results published in patent publication US12655116B2, “Substituted isophthalic acid diamides” (Bayer Aktiengesellschaft, priority 2020, dated 2026).
“And” between values parts separate entries of the source, which are not always exact repeats. Equal values may be shown once.

How the values were obtained:
ALOMY [1] = experiment: Pre-emergence herbicidal action against ALOMY; format: in vivo, Alopecurus myosuroides; conditions: 80 g/ha, pre-emergence, scored visually after 3 weeks vs untreated controls (100% = plants have died, 0% = like control plants)
Outline: (§1)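 Visual rating at 3 weeks vs untreated pots; 0–100% scale, 100% = plants died. Treatment: aqueous WP/EC spray onto covering soil, 600–800 l/ha, 0.2% wetter, seeds in sandy loam.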

AVEFA [2] = experiment: Post-emergence herbicidal action against AVEFA; format: in vivo, Avena fatua; conditions: 20 g/ha, visual assessment about 3 weeks after treatment, 100% = plants have died, 0% = like control plants
Outline: (§2)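 Greenhouse pot plants in sandy loam were sprayed at the one-leaf stage, 2 to 3 weeks after sowing, with WP or EC formulations as aqueous suspension or emulsion (600 to 800 l/ha water, 0.2% wetting agent). About 3 weeks later, damage was scored visually against untreated controls as % action (100% = dead, 0% = like control).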

AVEFA [3] = experiment: Pre-emergence herbicidal action against AVEFA; format: in vivo, Avena fatua; conditions: pre-emergence
Outline: as §1

VERPE [4] = experiment: Post-emergence herbicidal action against VERPE; format: in vivo, Veronica persica; conditions: 20 g/ha
Outline: as §2

AMARE [5] = experiment: Post-emergence herbicidal action against AMARE; format: in vivo, Amaranthus retroflexus; conditions: 20 g/ha, visual assessment about 3 weeks after treatment, 100% = plants have died, 0% = like control plants
Outline: as §2

PHBPU [6] = experiment: Pre-emergence herbicidal action against PHBPU; format: in vivo, Pharbitis purpurea; conditions: dosage 80 g/ha
Outline: as §1

AMARE [7] = experiment: Pre-emergence herbicidal action against AMARE; format: in vivo, Amaranthus retroflexus
Outline: as §1

DIGSA [8] = experiment: Post-emergence herbicidal action against DIGSA; format: in vivo, Digitaria sanguinalis
Outline: as §2

SETVI [9] = experiment: Pre-emergence herbicidal action against SETVI; format: in vivo, Setaria viridis
Outline: as §1

POLCO = experiment: Pre-emergence herbicidal action against POLCO; format: in vivo, Polygonum convolvulus; conditions: dosage 80 g/ha
Outline: as §1

ABUTH [10] = experiment: Pre-emergence herbicidal action against ABUTH; format: in vivo, Abutilon theophrasti
Outline: as §1

PHBPU [11] = experiment: Post-emergence herbicidal action against PHBPU; format: in vivo, Pharbitis purpurea
Outline: as §2

ABUTH [12] = experiment: Post-emergence herbicidal action against ABUTH; format: in vivo, Abutilon theophrasti; conditions: visual assessment about 3 weeks after treatment vs untreated controls
Outline: as §2

MATIN [13] = experiment: Pre-emergence herbicidal action against MATIN; format: in vivo, Matricaria inodora
Outline: as §1

ALOMY [14] = experiment: Post-emergence herbicidal action against ALOMY; format: in vivo, Alopecurus myosuroides; conditions: visual assessment about 3 weeks after treatment vs untreated controls
Outline: as §2

ECHCG [15] = experiment: Post-emergence herbicidal action against ECHCG; format: in vivo, Echinochloa crus-galli
Outline: as §2

ECHCG [16] = experiment: Pre-emergence herbicidal action against ECHCG; format: in vivo, Echinochloa crus-galli
Outline: as §1

DIGSA [17] = experiment: Pre-emergence herbicidal action against DIGSA; format: in vivo, Digitaria sanguinalis
Outline: as §1

VIOTR [18] = experiment: Post-emergence herbicidal action against VIOTR; format: in vivo, Viola tricolor
Outline: as §2

SETVI [19] = experiment: Post-emergence herbicidal action against SETVI; format: in vivo, Setaria viridis
Outline: as §2

VIOTR [20] = experiment: Pre-emergence herbicidal action against VIOTR; format: in vivo, Viola tricolor
Outline: as §1

LOLRI = experiment: Pre-emergence herbicidal action against LOLRI; format: in vivo, Lolium rigidum; conditions: 80 g/ha
Outline: as §1

VERPE [21] = experiment: Pre-emergence herbicidal action against VERPE; format: in vivo, Veronica persica; conditions: dosage 80 g/ha
Outline: as §1

MATIN [22] = experiment: Post-emergence herbicidal action against MATIN; format: in vivo, Matricaria inodora; conditions: dosage 20 g/ha
Outline: as §2

[23] = Setaria viridis, 504 h, dosage 20 g/ha
[24] = 80 g/ha, scored visually after 3 weeks vs untreated controls (100% = plants have died, 0% = like control plants)

## CNC(=O)c1c(C(F)F)ccc(C(=O)Nc2nnnn2C)c1Br [Example 1-225]
ALOMY [1]; Alopecurus myosuroides, 504 h
  pest or weed control at 80 g/ha: 100%
AVEFA [2]; Avena fatua, 504 h
  pest or weed control at 20 g/ha: 80%
AVEFA [3]; Avena fatua, 504 h, 80 g/ha
  pest or weed control at 80 g/ha: 80%
AVEFA [3]; Avena fatua, 504 h, 20 g/ha, scored visually after 3 weeks, 100% = plants have died, 0% = like control plants
  pest or weed control at 20 g/ha: 80%
VERPE [4]; Veronica persica, 504 h
  pest or weed control at 20 g/ha: 90%
AMARE [5]; Amaranthus retroflexus, 504 h
  pest or weed control at 20 g/ha: 100%
PHBPU [6]; Ipomoea purpurea, 504 h
  pest or weed control at 80 g/ha: 100%
AMARE [7]; Amaranthus retroflexus, 504 h, 20 g/ha, scored visually after 3 weeks vs untreated controls, 100% = plants have died, 0% = like control plants
  pest or weed control at 20 g/ha: 100%
AMARE [7]; Amaranthus retroflexus, 504 h, 80 g/ha, scored visually after 3 weeks vs untreated controls, 100% = plants have died, 0% = like control plants
  pest or weed control at 80 g/ha: 100%
DIGSA [8]; Digitaria sanguinalis, 504 h, 5 g/ha
  pest or weed control at 5 g/ha: 90%
DIGSA [8]; Digitaria sanguinalis, 504 h, 20 g/ha
  pest or weed control at 20 g/ha: 90%
SETVI [9]; [23]
  pest or weed control at 20 g/ha: 90%
SETVI [9]; Setaria viridis, 504 h, dosage 80 g/ha
  pest or weed control at 80 g/ha: 100%
POLCO; Fallopia convolvulus, 504 h
  pest or weed control at 80 g/ha: 90%
ABUTH [10]; Abutilon theophrasti, 504 h, 80 g/ha, scored visually after 3 weeks vs untreated controls (100% = plants have died, 0% = like control plants)
  pest or weed control at 80 g/ha: 80%
PHBPU [11]; Ipomoea purpurea, 504 h, dosage 20 g/ha
  pest or weed control at 20 g/ha: 80%
ABUTH [12]; Abutilon theophrasti, 504 h, dosage 5 g/ha
  pest or weed control at 5 g/ha: 80%
ABUTH [12]; Abutilon theophrasti, 504 h, dosage 20 g/ha
  pest or weed control at 20 g/ha: 80%
MATIN [13]; Tripleurospermum inodorum, 504 h, dosage 20 g/ha
  pest or weed control at 20 g/ha: 90%
MATIN [13]; Tripleurospermum inodorum, 504 h, dosage 80 g/ha
  pest or weed control at 80 g/ha: 100%
ALOMY [14]; Alopecurus myosuroides, 504 h, dosage 20 g/ha
  pest or weed control at 20 g/ha: 90%
ECHCG [15]; Echinochloa crus-galli, 504 h, dosage 5 g/ha
  pest or weed control at 5 g/ha: 90%
ECHCG [15]; Echinochloa crus-galli, 504 h, dosage 20 g/ha
  pest or weed control at 20 g/ha: 100%
ECHCG [16]; Echinochloa crus-galli, 504 h, 20 g/ha
  pest or weed control at 20 g/ha: 90%
ECHCG [16]; Echinochloa crus-galli, 504 h, 80 g/ha
  pest or weed control at 80 g/ha: 100%
DIGSA [17]; Digitaria sanguinalis, 504 h, dosage 80 g/ha
  pest or weed control at 80 g/ha: 90%
VIOTR [18]; Viola tricolor, 504 h, 20 g/ha
  pest or weed control at 20 g/ha: 80%
SETVI [19]; Setaria viridis, 504 h, dosage 5 g/ha
  pest or weed control at 5 g/ha: 90%
SETVI [19]; [23]
  pest or weed control at 20 g/ha: 100%
VIOTR [20]; Viola tricolor, 504 h, dosage 80 g/ha
  pest or weed control at 80 g/ha: 100%
LOLRI; Lolium rigidum, 504 h
  pest or weed control at 80 g/ha: 80%
VERPE [21]; Veronica persica, 504 h
  pest or weed control at 80 g/ha: 80%

## CCn1nnnc1NC(=O)c1ccc(C(F)F)c(C(=O)NCC2CC2)c1C [Example 2-47]
ALOMY [1]
  Pre-emergence action against ALOMY (herbicidal activity): 100%
AVEFA [2]
  Post-emergence action at 20 g/ha against AVEFA in %: 80%
AVEFA [3]; 80 g/ha
  Pre-emergence action against AVEFA in %: 80%
VERPE [4]
  Post-emergence action against VERPE in %: 80%
AMARE [5]
  Post-emergence action at 20 g/ha against AMARE in %: 90% and 100%
PHBPU [6]
  Pre-emergence action against PHBPU in %: 90%
AMARE [7]; 20 g/ha, scored visually after 3 weeks vs untreated controls, 100% = plants have died, 0% = like control plants
  Pre-emergence action against AMARE in %: 100%
AMARE [7]; [24]
  Pre-emergence action against AMARE in %: 100%
DIGSA [8]; 5 g/ha
  Post-emergence action against DIGSA in %: 90%
DIGSA [8]; 20 g/ha
  Post-emergence action against DIGSA: 90%
SETVI [9]; dosage 80 g/ha
  Pre-emergence action against SETVI in %: 100%
POLCO
  Pre-emergence action against POLCO in %: 80%
ABUTH [10]; [24]
  Pre-emergence action against ABUTH (herbicidal activity): 100%
ABUTH [10]; dosage 20 g/ha, scored visually after 3 weeks vs untreated controls, 100% = plants have died, 0% = like control plants
  Pre-emergence action against ABUTH (herbicidal activity in percent): 100%
PHBPU [11]; dosage 5 g/ha
  Post-emergence action against PHBPU in %: 80%
PHBPU [11]; dosage 20 g/ha
  Post-emergence action against PHBPU in %: 90%
ABUTH [12]; dosage 5 g/ha
  Post-emergence action against ABUTH in %: 90% and 80%
ABUTH [12]; dosage 20 g/ha
  Post-emergence action against ABUTH in %: 90%
MATIN [13]; dosage 20 g/ha
  Pre-emergence action against MATIN in %: 100%
MATIN [13]; dosage 80 g/ha
  Pre-emergence action against MATIN in %: 100%
ALOMY [14]; dosage 5 g/ha
  Post-emergence action against ALOMY in %: 80%
ALOMY [14]; dosage 20 g/ha
  Post-emergence action against ALOMY in %: 90%
ECHCG [15]; dosage 5 g/ha
  Post-emergence action against ECHCG in %: 80%
ECHCG [15]; dosage 20 g/ha
  Post-emergence action against ECHCG in %: 90% and 80%
ECHCG [16]; 80 g/ha
  Pre-emergence action against ECHCG in %: 100%
DIGSA [17]; dosage 20 g/ha
  Pre-emergence action against DIGSA in %: 100%
DIGSA [17]; dosage 80 g/ha
  Pre-emergence action against DIGSA in %: 100%
VIOTR [18]; 5 g/ha
  Post-emergence action against VIOTR in %: 80%
VIOTR [18]; 20 g/ha
  Post-emergence action against VIOTR in %: 90% and 80%
SETVI [19]; dosage 20 g/ha
  Post-emergence action against SETVI in %: 90%
VIOTR [20]; dosage 20 g/ha
  Pre-emergence action against VIOTR in %: 80%
VIOTR [20]; dosage 80 g/ha
  Pre-emergence action against VIOTR in %: 100%
LOLRI
  Pre-emergence action against LOLRI in %: 80%
VERPE [21]
  Pre-emergence action against VERPE in %: 100%
MATIN [22]
  Post-emergence action against MATIN in %: 80%
